# Reference: US20120309716A1, “Motor Function Improver” (Kao Corporation, priority 2010, published 2012)
# What was measured:
# [1] = system: mice; assay: Respiratory gas analysis (energy consumption and lipid combustion); type: in vivo, mouse; conditions: average in 24 hours after nine weeks of rearing, 0.25% sphingomyelin test feed
# Description: After preliminary rearing for one week, nine-week old BALB/c mice (male: Oriental Bioservice, Inc.) were classified into two groups (eight mice in each group) such that each group had the same body weight.
# (§1) After that, the mice were fed with a control feed (10% lipid, 20% casein, 55.5% potato starch, 8.1% cellulose, 0.2% methionine, 2.2% vitamin (product name: Vitamin mix AIN-76, Oriental Bioservice, Inc.), and 4% mineral (product name: Mineral mix AIN-76, Oriental Bioservice, Inc.)) or a test feed containing the sphingomyelin (10% lipid, 20% casein, […], 8.1% cellulose, 0.2% methionine, 2.2% vitamin, 4% mineral, and 0.25% sphingomyelin) each for nine weeks, and a respiratory gas analysis was carried out at the tenth week.
# The mice were transferred to a chamber for respiratory gas analysis and habituated to the environment for 48 hours, and oxygen consumption level and respiratory quotient of each mouse were measured over 24 hours using Arco-2000 system (ARCOSYSTEM Inc.). […] From the oxygen consumption level and respiratory quotient, the lipid combustion level was calculated by an equation of Peronnet (Peronnet F, and Massicotte D (1991) Can J Sport Sci 16:23-29.).
# [2] = system: isolated soleus muscle; assay: Suppression of muscle strength deterioration after tail suspension treatment (isolated soleus muscle); type: in vivo, mouse; conditions: mice, 0.25% sphingomyelin diet for two weeks, then seven days of tail suspension; SPM group vs Cont group
# Description: After preliminary rearing for one week, BALB/c male mice (nine-week old) were classified into three groups (a Normal group, a Cont group, and an SPM group) based on their weights (n=8 in each group). After grouping, the mice of the Normal group and the Cont group were fed with a control feed (10% lipid, 20% casein, 55.5% potato starch, 8.1% cellulose, 0.2% methionine, 2.2% vitamin, and 4% mineral), and the mice of the SPM group were fed with a test feed containing the sphingomyelin prepared in Production Example 1 (10% lipid, 20% casein, 55.25% potato starch, 8.1% cellulose, 0.2% methionine, 2.2% vitamin, 4% mineral, and 0.25% sphingomyelin) each for two weeks. The mice were fed with the test feed for two weeks, and the mice of the Cont group and the SPM group were subject to a tail suspension treatment to exclude a gravity load on their hindlimb muscles (such as soleus muscle). […] The mice of the Normal group were not subjected to the tail suspension treatment. After seven days of the tail suspension treatment, the mice were subjected to anatomy, and muscle strength of the isolated soleus muscle was measured. The muscle strength of the isolated muscle was measured in the same way as in Test Example 1.
# [3] = system: mice; assay: Swimming endurance (limit swimming time in flowing water pool); type: in vivo, mouse; conditions: 0.25% sphingomyelin diet and exercise, five weeks after beginning of administration, flow rate 7 L/min
# Description: (§2) After preliminary rearing for one week, nine-week old BALE/c male mice (Charles River Laboratories Japan Inc.) were classified into three groups (a Cont group, an Ex group, and an SPM group) (eight mice in each group) such that each group had the same body weight and swimming endurance (determined by measuring a limit swimming time by using a flowing water pool for mice (Kyodai Matsumoto type flowing water tank for measuring an amount of exercise: length×width×depth=90×45×45 cm, water depth: 38 cm, water temperature: 34° C. (Matsumoto, J Appl Physiol. 81: 1843-1849, 1996)) by the below-mentioned method).
# After grouping, the mice of the Cont group and the Ex group were fed with a control feed (10% lipid, 20% casein, 55.5% potato starch, 8.1% cellulose, 0.2% methionine, 2.2% vitamin (product name: Vitamin mix AIN-76, Oriental Bioservice, Inc.), and 4% mineral (product name: Mineral mix AIN-76, Oriental Bioservice, Inc.)), and the mice of the SPM group were fed with a test feed containing the sphingomyelin prepared in Production Example 1 (10% lipid, 20% casein, 55.25% potato starch, 8.1% cellulose, 0.2% methionine, 2.2% vitamin, 4% mineral, and 0.25% sphingomyelin) each for 13 weeks.
# During the feeding period, the limit swimming time was measured for the mice of the Ex group and the SPM group using the flowing water pool for mice once a week. […]
# [4] = system: isolated soleus muscle and extensor digitorum longus muscle; assay: Muscle strength of isolated soleus and extensor digitorum longus muscle after 13 weeks of rearing with exercise; type: in vivo, mouse; conditions: mice, 0.25% sphingomyelin diet and exercise, electrical stimulation 40 Hz, 330 ms, 10V
# Description: as §2, with “method). […] After 13 weeks of rearing, the mice were subjected to anatomy, muscle strength of isolated soleus muscle and extensor digitorum longus muscle was measured. Muscle strength of the isolated muscle was measured according to a method by Cannon et al. (Biomed Sci Instrum, 2005). […] Electrical stimulation of 40 Hz, 330 ms, and 10V was applied by using two platinum electrodes, and a signal obtained from the transducer was determined as muscle strength (g/mg muscle).” for “method).”
# [5] = system: PGC-1α; assay: Expression of gastrocnemius muscle mitochondrial function-related gene (quantitative PCR); type: in vivo; conditions: mouse gastrocnemius muscle after 13 weeks of rearing, 0.25% sphingomyelin test feed; control group 1.17 ± 0.10; p < 0.05
# Description: as §1
# After 13 weeks of rearing, the gastrocnemius muscle of a mouse of each group was collected, and RNA samples were obtained using RNeasy Fibrous Tissue Mini Kit (Qiagen). Each RNA sample was quantified, and a reverse transcription reaction was carried out in a reaction solution (1×PCR buffer II (Applied Biosystems), 5 mM MgCl2, 1 mM dNTP mix, 2.5 μM Oligo d [T]18 (New England Biolabs) and 1 U/ml RNase inhibitor (TAKARA BIO INC.) for 125 ng of RNA per reaction, to thereby obtain cDNA. The reaction was carried out under conditions of 42° C. and 10 min, 52° C. and 30 min, and 99° C. and 5 min.
# Quantitative PCR was carried out using the thus obtained cDNA as a template by ABI PRISM 7700 Sequence Detector (Applied Biosystems) The results were corrected based on the expression amount of 36B4 mRNA and represented as relative mRNA expression amounts. […]
substance,measurement,setting,value
sphingomyelin,Lipid combustion level,"[1]; calculated by equation of Peronnet, control group 5.4 ± 0.7, p < 0.05",7.5 ± 0.7 mg/kg/min
same,Oxygen consumption level,"[1]; control group 55.0 ± 1.0, p < 0.05",58.2 ± 0.8 mL/min/kg
same,muscle strength of the isolated soleus muscle,[2],significantly higher value
same,swimming endurance (limit swimming time),[3],significant improvement in endurance
same,muscle strength of the extensor digitorum longus muscle,[4],significantly higher values
same,muscle strength of the soleus muscle,[4],significantly higher values
same,PGC-1α relative mRNA expression amount (corrected based on 36B4 mRNA),[5],1.50 ± 0.15
